The source of these data is the supplement of paper PMC10627819.

Assay in all cases: Bliss interaction score (quartile over a dose matrix) (fitness difference); higher = more antagonism (negative = synergy)
In assay [1] the test system is B. subtilis 168. Summed up:
(§1)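 The Bliss score was calculated by subtracting the expected fitness, the product of single-drug values, from the observed fitness. OD595 at entry into stationary phase, over the plate's robust no-drug mean and capped at 1, served as the fitness readout. Single-drug values were inferred from combination data, and scores are summarised by quartiles across technical, biological and donor/recipient replicates.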

In assay [2] the test system is S. aureus Newman. Summed up:
as §1

The subject of assay [3] is S. pneumoniae D39V. Summed up: as §1
Assay [4] deals with S. aureus DSM 20231. Summed up: as §1

SMILES strings stand for the structures.
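Further: first quartile when negative (synergy) and third quartile when positive (antagonism).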

As for `CC1=C(C(=O)O)N2C(=O)[C@@H](NC(=O)[C@H](N)c3ccccc3)[C@H]2SC1` [Cephalexin] + C[C@@H](O)[C@H]1C(=O)N2C(C(=O)O)=C(SCCNC=N)C[C@H]12 [Imipenem], the Bliss interaction score in assay [1] was -0.104; in assay [2] it was -0.0579; in assay [3], -0.237; in assay [4], 0.0677.
`CC1=C(C(=O)O)N2C(=O)[C@@H](NC(=O)[C@H](N)c3ccccc3)[C@H]2SC1` [Cephalexin] + C[C@H]1COc2c(N3CCN(C)CC3)c(F)cc3c(=O)c(C(=O)O)cn1c23 [Levofloxacin]: the Bliss interaction score in assay [1] was -0.0126; in assay [2], 0.0499; in assay [3], -0.152; in assay [4], -0.037.
As for `CC1=C(C(=O)O)N2C(=O)[C@@H](NC(=O)[C@H](N)c3ccccc3)[C@H]2SC1` [Cephalexin] + C[C@H]1c2cccc(O)c2C(=O)C2=C(O)[C@]3(O)C(=O)C(C(N)=O)=C(O)[C@@H](N(C)C)[C@@H]3[C@@H](O)[C@@H]21 [Doxycycline], the Bliss interaction score in assay [1] was -0.0302; in assay [2], 0.0562; in assay [3] it was 0.183; in assay [4] it was 0.0912.
In the same order, the values of `CC1=C(C(=O)O)N2C(=O)[C@@H](NC(=O)[C@H](N)c3ccccc3)[C@H]2SC1` [Cephalexin] + N[C@@H]1CONC1=O [CycloserineD] are -0.0367, -0.0487, -0.117 and 0.0763.
Taken in the same sequence, the figures for `CC1=C(C(=O)O)N2C(=O)[C@@H](NC(=O)[C@H](N)c3ccccc3)[C@H]2SC1` [Cephalexin] + O=C(N[C@H](CO)[C@H](O)c1ccc([N+](=O)[O-])cc1)C(Cl)Cl [Chloramphenicol] were -0.069, 0.0789, 0.113 and 0.0832.
In the same order, the values of `CC1=C(C(=O)O)N2C(=O)[C@@H](NC(=O)[C@H](N)c3ccccc3)[C@H]2SC1` [Cephalexin] + O=C(O)[C@H]1/C(=C/CO)O[C@@H]2CC(=O)N21 [Clavulanic] are -0.0461, -0.0674, -0.14 and 0.0895.
In the case of `CC1=C(C(=O)O)N2C(=O)[C@@H](NC(=O)[C@H](N)c3ccccc3)[C@H]2SC1` [Cephalexin] + O=C(O)c1cn(C2CC2)c2cc(N3CCNCC3)c(F)cc2c1=O [Ciprofloxacin], the Bliss interaction score in assay [1] is -0.084; in assay [2] it was 0.067; in assay [3], -0.138; in assay [4] it was 0.0694.
With `CC1=C(C(=O)O)N2C(=O)[C@@H](NC(=O)[C@H](N)c3ccccc3)[C@H]2SC1` [Cephalexin] + O=C(O[C@@H]1Cc2c(O)cc(O)cc2O[C@@H]1c1cc(O)c(O)c(O)c1)c1cc(O)c(O)c(O)c1 [EGCG], the Bliss interaction score in assay [1] is -0.0668; in assay [2], -0.115; in assay [3], 0.0582; in assay [4], -0.071.
Taken in the same sequence, the figures for `CC1=C(C(=O)O)N2C(=O)[C@@H](NC(=O)[C@H](N)c3ccccc3)[C@H]2SC1` [Cephalexin] + Oc1cc(Cl)ccc1Oc1ccc(Cl)cc1Cl [Triclosan] were 0.0637, 0.024, 0.0582 and 0.0867.
`O=C(O)[C@H]1/C(=C/CO)O[C@@H]2CC(=O)N21` [Clavulanic] + CC1(C)S[C@@H]2[C@H](NC(=O)Cc3ccccc3)C(=O)N2[C@H]1C(=O)O [PenicillinG]: the Bliss interaction score in assay [1] is -0.351; in assay [2], -0.128; in assay [3] it was 0.0529; in assay [4] it was -0.147.
With `O=C(O)[C@H]1/C(=C/CO)O[C@@H]2CC(=O)N21` [Clavulanic] + CC1=C\[C@@H](O)CC(=O)Cc2nc(co2)C(=O)N2CCC=C2C(=O)O[C@H](C(C)C)[C@H](C)/C=C/C(=O)NC\C=C\1 [Virginiamycin M1], the Bliss interaction score in assay [1] is 0.0376; in assay [2], -0.0599; in assay [3], 0.0495; in assay [4] it was 0.0872.
In the same order, the values of `O=C(O)[C@H]1/C(=C/CO)O[C@@H]2CC(=O)N21` [Clavulanic] + CC(=O)NC[C@H]1CN(c2ccc(N3CCOCC3)c(F)c2)C(=O)O1 [Linezolid] are 0.0747, 0.242, -0.1 and -0.196.
Taken in the same sequence, the figures for `O=C(O)[C@H]1/C(=C/CO)O[C@@H]2CC(=O)N21` [Clavulanic] + CC(=O)O[C@H]1C[C@@]2(C)[C@@H](C[C@@H](O)[C@H]3[C@@]4(C)CC[C@@H](O)[C@@H](C)[C@@H]4CC[C@@]32C)/C1=C(\CCC=C(C)C)C(=O)O [Fusidic acid] were -0.0604, 0.209, -0.0441 and -0.265.
With `O=C(O)[C@H]1/C(=C/CO)O[C@@H]2CC(=O)N21` [Clavulanic] + CC(C1CCC(C(O1)OC2C(CC(C(C2O)OC3C(C(C(CO3)(C)O)NC)O)N)N)N)NC [Gentamicin], the Bliss interaction score is 0.105 in assay [1] (main component drawn), 0.288 in assay [2] (main component drawn), 0.0396 in assay [3] (main component drawn) and -0.273 in assay [4] (main component drawn).
Taken in the same sequence, the figures for `O=C(O)[C@H]1/C(=C/CO)O[C@@H]2CC(=O)N21` [Clavulanic] + CCC(C)C1C(=O)NC(=C)C(=O)NC(C(=O)NC(CSCC(C(=O)N1)NC(=O)/C(=C/C)/NC(=O)C(C(C)CC)N)C(=O)NC2C(SCC(NC(=O)CNC(=O)C3CCCN3C2=O)C(=O)NC(CCCCN)C(=O)NC4C(SCC(NC(=O)CNC(=O)C(NC(=O)C(NC(=O)C(NC(=O)CNC4=O)C)CC(C)C)CCSC)C(=O)NC(CC(=O)N)C(=O)NC(CCSC)C(=O)NC(CCCCN)C(=O)NC5C(SCC6C(=O)NC(C(=O)NC(CSC(C(C(=O)N6)NC(=O)C(NC5=O)C)C)C(=O)NC(CO)C(=O)NC(C(C)CC)C(=O)NC(CC7=CN=CN7)C(=O)NC(C(C)C)C(=O)NC(=C)C(=O)NC(CCCCN)C(=O)O)CC8=CN=CN8)C)C)C)CC(C)C [Nisin] were -0.0543, 0.255, -0.0543 and 0.105.
